Results reported in patent US11331290B2, “Niclosamide for the treatment of cancer metastasis” (Max-Delbrück-Centrum für Molekulare Medizin in der …, priority 2011, dated 2022).

System: S100A4 promoter
Test: High-throughput screening, S100A4 promoter-driven luciferase reporter
Type: cell-based, human
Conditions: HCT116-S100A4p-LUC cells, 20-concentration rescreen, 2-fold dilutions from 100 μM, 24 h
Method: HCT116-S100A4p-LUC colon cancer cells stably expressing a human S100A4 promoter-driven luciferase reporter gene construct were screened with the Library of Pharmacologically Active Compounds (LOPAC; FIG. 1, A). The LOPAC Library represents a collection of 1280 well characterized small molecule inhibitors. […] In parallel, cell viability was determined using the Alamar blue assay to evaluate whether some of the inhibitory effects were caused by cytotoxicity (data not shown). […]
For high-throughput screening 2.5×10^3 cells per well of HCT116-S100A4p-LUC cells were seeded into white opaque 384-well plates (Perkin Elmer, Waltham, Mass.) using the BIOMEK 2000 automatic pipetting system (Beckman Coulter, Brea, Calif.). […] Following compound treatment, luciferase expression was determined using Britelite reagent (Perkin Elmer) in a Wallac Victor reader (Perkin Elmer). In parallel, cytotoxicity of the compounds was measured in clear polystyrene 384-well plates (Costar) by Alamar blue cytotoxicity assay (Sigma-Aldrich). […] Plates were then read on a Wallac Victor reader at an excitation wavelength of 530 nm and emission wavelength of 590 nm. For both luminescence and Alamar blue fluorescence data, eight vehicle control wells were averaged and test compound results (single well) expressed as percent of control. […]

## O=C(Nc1ccc([N+](=O)[O-])cc1Cl)c1cc(Cl)ccc1O [niclosamide, 2′,5-dichloro-4′-nitrosalicylanilide]
  inhibition of reporter gene expression: strongest candidate
